From patent publication US20260376293A1, “METHODS FOR STUDYING GPR158 PHARMACOLOGY AND IDENTIFICATION OF ITS LIGANDS” (UNIVERSITY OF FLORIDA RESEARCH FOUNDATION, INCORPORATED, priority 2022, published 2026) come the findings set out here.

In this assay the target is T1, GPR158 (Homo sapiens, UniProt Q5T848).
T1 sequence (Q5T848 24-1215): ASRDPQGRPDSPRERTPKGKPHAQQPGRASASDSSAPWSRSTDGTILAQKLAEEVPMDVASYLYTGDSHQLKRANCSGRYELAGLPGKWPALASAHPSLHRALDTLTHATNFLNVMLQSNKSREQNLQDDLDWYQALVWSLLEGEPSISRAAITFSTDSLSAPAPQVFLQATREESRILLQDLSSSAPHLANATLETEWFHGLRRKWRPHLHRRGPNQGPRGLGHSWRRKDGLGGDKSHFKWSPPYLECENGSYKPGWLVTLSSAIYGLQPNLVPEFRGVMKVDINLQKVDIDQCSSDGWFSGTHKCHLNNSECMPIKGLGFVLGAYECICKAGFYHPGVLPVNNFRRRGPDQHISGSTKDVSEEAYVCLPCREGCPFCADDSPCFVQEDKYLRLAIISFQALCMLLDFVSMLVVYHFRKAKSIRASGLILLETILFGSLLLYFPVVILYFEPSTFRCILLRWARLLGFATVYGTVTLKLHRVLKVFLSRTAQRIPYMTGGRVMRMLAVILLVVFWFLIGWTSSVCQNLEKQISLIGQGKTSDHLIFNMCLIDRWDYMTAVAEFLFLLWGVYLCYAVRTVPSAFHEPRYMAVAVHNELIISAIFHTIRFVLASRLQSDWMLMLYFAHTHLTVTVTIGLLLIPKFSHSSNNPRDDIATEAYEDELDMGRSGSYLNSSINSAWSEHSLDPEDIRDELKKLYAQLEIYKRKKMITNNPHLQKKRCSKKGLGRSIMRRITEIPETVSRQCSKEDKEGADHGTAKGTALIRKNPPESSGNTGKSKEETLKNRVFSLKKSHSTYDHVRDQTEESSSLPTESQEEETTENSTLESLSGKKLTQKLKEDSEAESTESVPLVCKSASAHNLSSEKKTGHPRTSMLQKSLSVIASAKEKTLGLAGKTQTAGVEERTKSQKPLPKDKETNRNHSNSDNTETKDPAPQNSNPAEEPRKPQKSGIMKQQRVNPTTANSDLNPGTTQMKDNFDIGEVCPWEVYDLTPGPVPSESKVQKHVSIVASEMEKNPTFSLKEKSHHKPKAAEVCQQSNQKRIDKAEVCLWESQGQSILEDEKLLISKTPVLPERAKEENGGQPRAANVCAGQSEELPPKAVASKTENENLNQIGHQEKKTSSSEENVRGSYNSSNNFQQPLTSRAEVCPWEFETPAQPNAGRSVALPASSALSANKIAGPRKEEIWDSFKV
As to the kind of experiment: Membrane radioligand saturation binding (Scatchard). Details: expressed in transfected cells; host or cells: HEK293FT. The settings on record: for Kd: Scatchard plot, HEK293 membranes expressing GPR158, n=4. As to the method: FIGS. 9A-9H. Direct interaction of glycine with GPR158 A) Schematics of assay design for detecting glycine binding to GPR158 by flow cytometry. Cells transfected with GPR158 are incubated with FITC-glycine and fluorescence labeling of cells is detected by flow cytometry. B) Representative flow cytometry histogram showing distribution of cellular populations after sorting. C) Quantification of FITC-glycine binding detected in flow cytometry binding experiments. The median of fluorescence (MFI) is quantified and plotted. Error bars are s.e.m. values, N=3, **p<0.01, ****p<0.0001, two-way ANOVA. D) Schematics of the radioligand binding assay. E) Quantification of ^3H-glycine binding to membrane expressing GPR158. Count Per minute (CPM) are measured and plotted. Data shown mean of 4 independent experiments error bars are s.e.m. values, n=4. […] Data shown mean of 4 independent experiments error bars are s.e.m. values, n=4. […] Control (thick line), GPR158 (thin line) I) Quantification of binding determined by fitting the integrated isotherm to an independent binding model.
Next, the inventors performed radioligand binding assays examining binding of [^3H]-labeled glycine to HEK293 cells expressing GPR158 (FIG. 7A). […] The inventors detected saturable [^3H]-glycine binding to membranes containing GPR158 is substantial excess over linear non-specific binding to membranes devoid of GPR158 (FIG. 9E). […]
Membrane binding assay was conducted using HEK293FT cells cultured in 6 well plates at the density of 10^6 per well and transfected with 2 μg of cDNA of GPR158 or empty pcDNA3.1+ for ctrl cells using Metafectene Pro. […] Finally, each filter was incubated in 5 ml of scintillation cocktail (Ecoscint XR, National Diagnostics), homogenized and radioactivity were measured using the liquid scintillation counter Hidex 600SL. The saturation binding curve, Scatchard plots and affinity KD and Bmax constants were calculated using Graphpad Prism 9.0 by fitting a non-linear regression binding saturation curve. […]

The compound `NCC(=O)O` [glycine] displayed a Kd of roughly 3000 nM.
Consider `NCC(=O)O` [^3H-glycine, [^3H]-glycine], for which the dissociation constant (Kd) stood at 2620 ± 1820 nM. For the same compound, the “binding to membranes containing GPR158” value (excess over linear non-specific binding to membranes devoid of GPR158) is given as “saturable”.

By Kd is commonly meant the constant that tells how readily two partners part at equilibrium. Read a low Kd as tighter binding.
